The values that follow come from patent US7456197B2, “Pyridinium cationic lipids as gene transfer agents” (The Texas A&M University System, priority 2003, dated 2008).

Entries after “also recorded” stand apart in the source; their conditions may differ.

The nature of data set [1]: Critical (phase transition) temperature Tc by differential scanning calorimetry. It counts as physicochemical. The protocol: General. Melting points for the diols and the phase transition temperature Tc for the cationic lipids were determined by differential scanning calorimetry (DSC), using a TA-Instruments Q100 DSC, and a heating rate of 5° C./minute. The IR spectra were recorded on a Nicolet Avatar 360 FTIR spectrophotometer in the range 650-4000 cm^−1 using a ZnSe—attenuated total reflectance (ATR) accessory. The compounds were solved in a small amount of solvent (MeOH for the diols, CHCl3 for the lipids), and the resulted solutions were left to evaporate to dryness on the surface of the ZnSe crystals of the ATR accessory. The NMR spectra were recorded at ≈303 K with a Varian Inova spectrometer equipped with a 5 mm indirect detection probe, operating at 500 MHz for ^1H-NMR and at 125 MHz for ^13C-NMR. Chemical shifts are reported as δ values, using TMS as internal standard for proton spectra and the solvent resonance for carbon spectra. Assignments were made based on signal intensity, selective decoupling, COSY (^1H-^1H) and HETCOR (^1H-^13C) sequences. Elemental analyses were performed by combustion, using a Perkin Elmer 2400 Series II CHNS analyser.
(§1) Dioleoylphosphatidylethanolamine (DOPE), cholesterol (CHOL), N-(2,3-dioleoyloxypropyl)-N,N,N-trimethylammonium chloride (DOTAP) were commercial products. The purity of the lipids was checked by thin layer chromatography and also by differential scanning calorimetry (DSC), which was also used for determining the critical temperature Tc. For the preparation of the liposomes a protocol optimized for this type of compounds was adopted as follows. The cationic lipid (with or without helper lipid) was dissolved in chloroform/methanol (2/1, v/v) to reach a final concentration of 1 mM for the charged species. From this stock solution 50 μL were aliquoted in a 1 mL tube and the solvent was evaporated in a SpeedVac evaporator, under vacuum, for 1 h. The dried lipid film was prepared by removing the traces of organic solvent in a dessicator, over Drierite®, under vacuum, overnight. The film was hydrated with 500 μL sterile phosphate buffer saline (PBS) the tube was purged with sterile N2, and vortexed for 1 minute. The liposomes were generated by sonicating the tube in a water bath sonicator for 5-30 minutes at 62° C. and at 37° C. for DOTAP. After sonication the preparations were allowed to reach room temperature.
Materials and Methods. Melting points for the diols, acetates and ketals were determined on a Boetius heating plate microscope and are uncorrected. For the cationic lipids 21 and 25 the phase transition temperature Tc was determined by differential scanning calorimetry (DSC), using a TA-Instruments Q100 DSC, and a heating rate of 5° C./minute. The IR spectra were recorded on a Nicolet Avatar 360 FTIR spectrophotometer, in the range 650-4000 cm^−1, using a ZnSe—attenuated total reflectance (ATR) accessory. The compounds were solved in a small amount of solvent (MeOH for the diols, CHCl3 for the esters), the resulted solutions being left to evaporate to dryness on the surface of the ZnSe crystals of the ATR accessory. This technique was imposed by the poor results obtained in transmission mode for some of the compounds, due to the lack of crystallization, hygroscopicity and other problems related with working with KBr pellets. The NMR spectra were recorded at ≈303 K with a Varian Gemini 300BB spectrometer operating at 300 MHz for ^1H and at 75 MHz for ^13C. Chemical shifts are reported as δ values, using TMS as internal standard for proton spectra and the solvent resonance for carbon spectra: 77.00 ppm in CDCl3, 39.50 ppm in DMSO-d6, the line from 123.50 ppm in pyridine-d5, 62.80 ppm in nitromethane-d3, 30.10 ppm in dimethylformamide-d7. Assignments were made based on signal intensity, selective decoupling and COSY (^1H-^1H) and HETCOR (^1H-^13C) sequences. Nitrogen elemental analysis was performed by combustion, mixing the samples with small amounts of quartz sand.
Background: Differential scanning calorimetry records heat flow against a reference as temperature is scanned.

Data set [2] deals with HeLa cells (human carcinoma cell line ATCC No. CCL-2). In words: Luciferase (pGL3-Control) transfection efficiency, HeLa cells. It is filed as cell-based. The following applies: no helper lipid, DOTAP as reference. The procedure: Transfection experiments were carried out in vitro on HeLa cells (human carcinoma cell line ATCC No. CCL-2), using a pGL3-Control plasmid (Promega, Madison, Wisc.), which encodes the firefly luciferase reporter. The structurally related and commercially available DOTAP (2) mentioned earlier was chosen as reference.
HeLa cell line was obtained from ATCC, MD. The plasmid pGL3-control, encoding a firefly luciferase reporter was from Promega (Madison, Wisc.). As transfection reference we used N-[1-(2,3-dioleoyloxy)propyl]-N,N,N-trimethylammonium methylsulfate (DOTAP), obtained from Roche Molecular Biochemicals (Indianapolis, Ind.). The BCA protein assay kit was from Pierce (Rockford, Ill.).
All of the pyridinium cationic lipids, along with the DOTAP reference, were tested in triplicate in two independent assays. The pyridinium cationic lipids containing tetrafluoroborate (BF4^−) or perchlorate (ClO4^−) anion were dissolved in ethanol/chloroform. The lipid solution was evaporated to dryness using a Speedvac rotary evaporating device, under vacuum. Traces of solvents were removed from the lipid film by keeping the vials under vacuum for another 3 hours. Ultrapure water was added to the dry lipid film, so that a final 1 μg/μL concentration could be reached, and the lipid film was allowed to hydrate overnight. […]

The test system of data set [3] is lung cancer cell line NCI-H23. In words: Luciferase (pGL3) transfection efficiency of lipoplexes, NCI-H23. It counts as cell-based, human. As to conditions: exposure from one hour to three hours; data not shown.
For data set [4], the system named is lung cancer cell line NCI-H23. The description is as above. It counts as cell-based, human. As to conditions: 5Myr/Chol 1:1, PBS, sonicated two sequences of 15 minutes, FIG. 5. The procedure:
The three series of cationic lipids newly synthesized were assessed for their transfection efficiency in vitro, using the experimental conditions optimized in a previous study.^23 Essentially the cationic lipids were mixed with cholesterol at a 1:1 molar ratio, dissolved in chloroform/methanol and dried under vacuum to generate a lipid film. The dried lipid film was hydrated with sterile phosphate buffer isotonic saline with pH=7.4 (PBS) and sonicated to yield cationic liposomes. The resulting liposomal solution was allowed to react with a DNA solution to form the final cationic lipid-DNA complexes (lipoplexes), which were assessed for transfection efficiency using different cell cultures. We used a pGL3 plasmid (Promega, Madison, Wisc.), encoding a firefly luciferase gene under the control of the constitutively active SV40 promoter as the reporter for the transfection efficiency. An optimal^23 electrostatic charge ratio cationic lipid/DNA of 2:1 was used in all preparations. […] The ability of these new cationic lipids to generate relatively small cationic liposomes could be attributed to the relatively large curvature radius induced in the bilayer by the bulky pyridinium cationic head.
as §1
For generating the lipoplexes, 1.4-2.8 μL plasmid DNA solution (0.5 μg/μL) was diluted with 100 μL Optimem®. A liposome solution was prepared separately by diluting the initial liposomal stock solution (0.1 mM in cationic lipid) with Optimem® in specified proportions, to reach a final volume of 50 μL. Over this liposome solution 50 μL of the DNA stock solution was added, the tube was incubated for 30 minutes at room temperature and then the content diluted with 500 μL Optimem® (final volume of the lipoplex stock solution: 600 μL).
The lipoplexes was tested for their transfection properties over five different cancer cell lines—breast carcinoma (MCF-7 and MDA-Mb231), lung carcinoma (NCI-H23), prostate carcinoma (DU-145) and brain carcinoma (SWB-95). The cells were maintained in 10% fetal bovine serum (FBS)—enriched RPMI 1640 at 37° C. and 5% CO2 in a humidified atmosphere. Twenty-four hours prior to transfection the cells were transferred in 96-wells microtiter plate at a density of 20,000 cells/well. Each well received 100 μL medium and the plate was incubated in the same conditions. All experiments were done in triplicate or quadruplicate.
Immediately before transfection the medium was removed from each well and the cells were briefly washed with 200 μL sterile PBS. After removal of the PBS each well received 100 μL lipoplex stock solution and the plate was placed in the incubator for 1 hour. Then, 100 μL medium was added to each well and the plate was incubated for 24 hours. […]

Another data set relates to cancer cell line NCI-H23. Nature of the data set: WST-1 viability assay of transfected cells. It is filed as cell-based, human. The procedure: FIG. 6. Viability assay results for the cancer cell line NCI-H23 transfected with 5AMyr-5EMyr and DOTAP (Cl^−)-based lipoplexes. The other characteristics were the same as in the transfection experiment represented in FIG. 5.
In order to assess the cytotoxicity associated with every anion, a WST-1^28 viability assay was conducted in parallel.

In the case of `CCCCCCCCCCCCCCCC(=O)OCC(COC(=O)CCCCCCCCCCCCCCC)[n+]1c(C)cc(C)cc1C.F[B-](F)(F)F` [Lipid 25AbP, 1-(1,3-Dipamitoyloxypropane-2-yl)-2,4,6-trimethylpyridinium tetrafluoroborate], the “Tc (phase transition temperature)” value in data set [1] (lipids 21 and 25, DSC, heating rate 5° C./minute) worked out at 70 °C. In data set [2], the “transfection efficiency (in words)” value is on record as “comparable with that of DOTAP”.
As for `CCCCCCCCCCCCCC(=O)OCC(COC(=O)CCCCCCCCCCCCC)[n+]1c(C)cc(C)cc1C.[Cl-]` [Lipid 5DMyr, 1-(1,3-dimyristoyloxypropane-2-yl)-2,4,6-trimethylpyridinium chloride], the “Tc (critical temperature), Pure” value in data set [1] (pure lipid) is 76.3 °C. The “Tc (critical temperature), With cholesterol (1:1 molar ratio)” value in data set [1] (with cholesterol, 1:1 molar ratio) worked out at 81.2 °C. The “transfection efficiency on longer cell exposure to lipoplexes” value in data set [3] is on record as “higher transfection efficiencies”. Moreover, in data set [4], the “transfection efficiency, counterion study” value is “surpassed DOTAP in transfection efficiency”. Besides, in the data set on cancer cell line NCI-H23 (NCI-H23 transfected with lipoplexes, Chol 1:1, FIG. 6), the “cytotoxicity (WST-1 viability)” value is listed as “minimum cytotoxicity; also recorded: lower cytotoxic effect”. The “cytotoxic effect on longer cell exposure to lipoplexes” value with cancer cell line NCI-H23 (exposure from one hour to three hours, data not shown) was “without any visible cytotoxic effect”.
In the case of `CC(=O)OCC(C[n+]1c(C)cc(C)cc1C)OC(C)=O.F[B-](F)(F)F` (stereo not drawn), the melting point is 119 to 120 °C.

The melting point is the temperature of the solid-liquid transition.
